Laboratory results: the supplement of paper PMC10307832

Legend:
Assay in all cases: relative viability (nuclei count vs DMSO), 5 days (fraction); higher = more cells survive
Pemetrexed + Linsitinib = compound: Nc1nc2[nH]cc(CCc3ccc(C(=O)N[C@@H](CCC(=O)O)C(=O)O)cc3)c2c(=O)[nH]1 [Pemetrexed] + C[C@]1(O)C[C@@H](c2nc(-c3ccc4ccc(-c5ccccc5)nc4c3)c3c(N)nccn32)C1 [Linsitinib] (partner 1 µM)
In short: (§1)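 Relative viability is defined as nuclei in treated wells over nuclei in vehicle wells. Duplicate plates were run and medians reported. Lung cancer cell lines in 1536-well plates were dosed by pin tool one day after seeding, with one drug or with a fixed anchor-drug dose plus five library-drug doses (not always all listed) in √10 steps, and nuclei were counted after 5 days.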

Pemetrexed + Tozasertib = compound: Nc1nc2[nH]cc(CCc3ccc(C(=O)N[C@@H](CCC(=O)O)C(=O)O)cc3)c2c(=O)[nH]1 [Pemetrexed] + Cc1cc(Nc2cc(N3CCN(C)CC3)nc(Sc3ccc(NC(=O)C4CC4)cc3)n2)n[nH]1 [Tozasertib] (partner 0.1 µM)
In short: as §1

Idelalisib + Luminespib = compound: CC[C@H](Nc1ncnc2[nH]cnc12)c1nc2cccc(F)c2c(=O)n1-c1ccccc1 [Idelalisib] + CCNC(=O)c1noc(-c2cc(C(C)C)c(O)cc2O)c1-c1ccc(CN2CCOCC2)cc1 [Luminespib] (partner 0.01 µM)
In short: as §1

Idelalisib + Bortezomib = compound: CC[C@H](Nc1ncnc2[nH]cnc12)c1nc2cccc(F)c2c(=O)n1-c1ccccc1 [Idelalisib] + CC(C)C[C@H](NC(=O)[C@H](Cc1ccccc1)NC(=O)c1cnccn1)B(O)O [Bortezomib] (partner 0.002 µM)
In short: as §1

Cell Line	relative viability (Pemetrexed + Linsitinib; first compound 0.002 µM)	relative viability (Pemetrexed + Linsitinib; first compound 0.006325 µM)	relative viability (Pemetrexed + Linsitinib; first compound 0.02 µM)	relative viability (Pemetrexed + Linsitinib; first compound 0.06325 µM)	relative viability (Pemetrexed + Linsitinib; first compound 0.2 µM)	relative viability (Pemetrexed + Tozasertib; first compound 0.002 µM)	relative viability (Pemetrexed + Tozasertib; first compound 0.006325 µM)	relative viability (Pemetrexed + Tozasertib; first compound 0.02 µM)	relative viability (Pemetrexed + Tozasertib; first compound 0.06325 µM)	relative viability (Pemetrexed + Tozasertib; first compound 0.2 µM)	relative viability (Idelalisib + Luminespib; first compound 0.04 µM)	relative viability (Idelalisib + Luminespib; first compound 0.1265 µM)	relative viability (Idelalisib + Luminespib; first compound 0.4 µM)	relative viability (Idelalisib + Luminespib; first compound 1.265 µM)	relative viability (Idelalisib + Luminespib; first compound 4 µM)	relative viability (Idelalisib + Bortezomib; first compound 0.04 µM)	relative viability (Idelalisib + Bortezomib; first compound 0.1265 µM)	relative viability (Idelalisib + Bortezomib; first compound 0.4 µM)	relative viability (Idelalisib + Bortezomib; first compound 1.265 µM)	relative viability (Idelalisib + Bortezomib; first compound 4 µM)
NCI-H650	0.651	0.983	1.1	0.944	0.839	0.666	0.691	0.826	0.734	0.74	0.894	0.703	0.648	0.869	0.765	0.693	0.998	0.735	1.13	0.662
A-427	1.02	1.09	1.08	1.13	1.1	0.232	0.2	0.213	0.509	0.218	0.833	0.857	0.744	0.879	0.783	1.03	0.903	0.883	1.05	0.913
NCI-H2347	0.874	0.932	0.938	0.716	0.521	0.337	0.516	0.595	0.589	0.356	0.506	0.581	0.448	0.362	0.532	0.971	0.982	0.971	0.774	0.799
NCI-H1651	0.995	0.977	0.987	0.903	0.895	0.684	0.645	0.703	0.658	0.644	0.789	1	0.832	0.809	0.605	1	0.913	0.939	1.01	1.02
NCI-H23	0.602	0.513	0.607	0.549	0.589	0.311	0.36	0.514	0.347	0.395	0.219	0.221	–	–	0.196	1.05	0.986	0.771	1.07	0.959
LOU-NH91	0.888	0.852	0.987	0.688	0.598	0.656	0.676	0.706	0.54	0.366	0.281	0.321	0.327	0.33	0.315	0.483	0.39	0.512	0.437	0.472
LXF-289	0.917	0.994	0.976	0.955	0.931	0.165	0.19	0.194	0.163	0.183	0.776	0.575	0.663	0.815	0.439	1.08	0.925	0.995	1.05	1.04
NCI-H460	0.75	0.697	0.782	0.166	0.0543	0.108	0.48	0.511	0.272	0.0837	0.0345	0.032	0.0291	0.0326	0.0297	0.782	1.03	1.1	1.23	1.04
EMC-BAC-2	0.541	0.778	0.794	0.826	0.844	0.327	0.255	0.296	0.278	0.244	1.34	1.24	1.03	1.25	1.13	1.12	1.15	1.05	1.13	1.04
CAL-12T	0.776	0.744	0.932	0.996	0.782	0.337	0.276	0.329	0.286	0.277	0.302	0.635	0.362	0.564	0.264	1.08	1.12	0.856	1.24	0.936
COR-L 105	0.804	0.872	1.05	0.709	1.03	0.431	0.332	0.31	0.366	0.338	0.695	0.783	0.814	0.699	0.573	0.906	0.92	0.53	1.02	0.713
NCI-H2009	0.979	1.1	1.3	1.17	1.11	0.707	0.697	0.855	0.71	0.694	1.01	1.04	1.02	1.11	1.03	1.02	1.07	0.995	1.14	0.991
NCI-H441	0.553	0.572	0.454	0.414	0.269	0.66	0.484	0.827	0.515	0.342	0.365	0.354	0.308	0.308	0.316	0.406	0.453	–	0.608	0.37
NCI-H1437	0.898	0.965	0.967	0.49	0.252	–	0.402	0.37	0.357	0.228	1.11	1.15	1.05	1.22	1.18	0.567	0.532	0.452	0.833	0.37
PC-14	0.922	0.901	1.01	0.759	0.184	0.661	0.564	0.676	0.416	0.222	0.158	0.136	0.127	0.154	0.123	0.913	0.996	0.947	0.982	0.814
LCLC-103H	1.07	1.03	1.14	1.16	0.992	0.451	0.366	0.515	0.443	0.443	0.998	0.731	0.757	0.933	0.794	1.07	1.24	1.04	1.04	0.911

Cell Line	relative viability (Pemetrexed + Linsitinib; first compound 0.002 µM)	relative viability (Pemetrexed + Linsitinib; first compound 0.006325 µM)	relative viability (Pemetrexed + Linsitinib; first compound 0.02 µM)	relative viability (Pemetrexed + Linsitinib; first compound 0.06325 µM)	relative viability (Pemetrexed + Linsitinib; first compound 0.2 µM)	relative viability (Pemetrexed + Tozasertib; first compound 0.002 µM)	relative viability (Pemetrexed + Tozasertib; first compound 0.006325 µM)	relative viability (Pemetrexed + Tozasertib; first compound 0.02 µM)	relative viability (Pemetrexed + Tozasertib; first compound 0.06325 µM)	relative viability (Pemetrexed + Tozasertib; first compound 0.2 µM)	relative viability (Idelalisib + Luminespib; first compound 0.04 µM)	relative viability (Idelalisib + Luminespib; first compound 0.1265 µM)	relative viability (Idelalisib + Luminespib; first compound 0.4 µM)	relative viability (Idelalisib + Luminespib; first compound 1.265 µM)	relative viability (Idelalisib + Luminespib; first compound 4 µM)	relative viability (Idelalisib + Bortezomib; first compound 0.04 µM)	relative viability (Idelalisib + Bortezomib; first compound 0.1265 µM)	relative viability (Idelalisib + Bortezomib; first compound 0.4 µM)	relative viability (Idelalisib + Bortezomib; first compound 1.265 µM)	relative viability (Idelalisib + Bortezomib; first compound 4 µM)
COR-L23	0.839	0.863	1.04	0.294	0.177	0.229	0.196	0.197	0.12	0.105	0.848	0.681	0.699	0.819	0.549	0.874	1.01	0.947	1.22	0.956
H3255	0.83	0.976	1.04	0.946	0.768	0.653	0.707	0.754	0.709	0.555	1.13	0.786	0.78	0.882	0.878	0.882	0.888	0.807	0.807	0.829
NCI-H2126	0.696	0.686	0.718	0.692	0.729	0.711	0.845	0.875	0.775	0.643	0.929	0.893	0.802	0.961	0.929	1.14	1.15	1.13	1.14	1.21
LU99A	0.501	0.496	0.634	0.44	0.345	0.259	0.325	0.338	0.272	0.249	0.217	0.274	0.238	0.285	0.243	1.29	1.13	1.1	1.33	1.11
HOP-62	0.903	0.788	0.959	0.671	0.922	0.334	0.306	0.409	0.368	0.349	1.03	0.875	0.83	1.08	0.926	0.72	0.796	–	0.797	0.997
HCC-15	0.857	0.773	0.922	0.753	0.518	0.431	0.394	0.497	0.407	0.205	0.185	0.242	0.286	0.26	0.404	0.998	1.11	0.899	1.1	1.02
HARA	0.876	0.969	0.922	0.822	0.292	0.13	0.0932	0.123	0.0911	0.0832	0.778	0.642	0.613	0.683	0.6	1.27	1.02	1.08	1.2	1.1
NCI-H1355	0.8	0.801	0.824	0.881	0.72	0.532	0.516	0.554	0.632	0.586	0.672	0.779	0.531	0.628	0.602	1.26	1.29	0.987	1.23	1.17
NCI-H727	0.154	0.272	0.218	0.332	0.264	0.6	0.584	0.498	0.738	0.61	0.327	0.345	–	0.333	0.451	0.848	1.21	0.632	1.22	0.791
NCI-H520	0.946	0.911	0.926	1.09	0.956	0.42	0.475	0.447	0.412	0.45	0.197	0.251	0.222	0.217	0.192	0.464	0.552	0.367	0.634	0.278
NCI-H838	0.97	0.915	1.21	0.791	0.309	0.229	0.276	0.295	0.265	0.203	0.235	0.346	0.273	0.339	0.243	0.835	0.95	0.476	1.03	0.635
HCC-44	0.598	0.625	0.73	0.665	0.536	0.903	0.945	1.15	0.853	0.372	1.25	1.06	0.852	1.18	1.05	0.825	0.946	0.908	0.984	0.825
HCC-827	0.843	0.946	1.02	0.997	0.846	0.377	0.414	0.441	0.44	0.335	1.18	0.545	0.478	0.249	0.374	1.1	0.99	1.03	1.17	1.07
SW 1573	0.794	0.761	0.7	0.752	0.837	0.241	0.197	0.201	0.139	0.178	0.275	0.171	0.219	0.17	0.365	1.06	0.972	1.02	0.928	0.865
NCI-H2023	0.738	0.537	0.693	0.55	0.304	0.245	0.338	0.364	0.379	0.223	0.644	0.784	0.79	0.87	0.67	1.11	1.09	0.681	1.03	0.871
EPLC-272H	1.06	1.07	1.19	0.959	1.12	0.284	0.261	0.225	0.251	0.306	0.521	0.291	0.309	0.265	0.325	0.904	0.858	1.05	0.935	0.851
